Measurements from patent publication US10793599B2, “MPHOSPH1-derived peptide, and vaccine including same” (OncoTherapy Science, Inc., priority 2015, dated 2020).
“Also recorded” adds a separate entry of the source.

How the values were obtained:
[1] = tested on: peptide-pulsed C1R-A11; test: In vitro CTL induction, IFN-gamma ELISPOT assay (HLA-A*11:01); type: cell-based, human; settings: CD8 positive T cells of HLA-A*11:01-positive donors after three stimulations with peptide-pulsed DCs, against peptide-pulsed C1R-A11
Method: (§1) Monocyte-derived dendritic cells (DCs) were used as the antigen-presenting cell to induce a specific cytotoxic T lymphocyte (CTL) response against peptides presented on human leukocyte antigens (HLAs). As already reported in literatures, DCs were generated in vitro (Nakahara S et al., Cancer Res 2003, 63(14): 4112-8). Specifically, peripheral-blood mononuclear cells (PBMCs) collected from healthy volunteers (HLA-A*11:01-positive) with the Ficoll-Paque plus solution (Pharmacia) were seeded in plastic tissue culture dishes (Corning) to let the monocytes in the PBMCs adhere to the dishes. This was cultured in the presence of 1000 IU/ml granulocyte macrophage colony-stimulating factor (R&D System) and 1000 IU/ml interleukin (IL)-4 (R&D System) for seven days. An AIM-V medium (Invitrogen) containing 5% inactivated AB-type serum (ABS) was used as the medium. DCs that were induced to differentiate from monocytes using the cytokines were pulsed with 20 micro-g/ml of each synthesized peptide (37 degrees C., three hours). Peptide pulsing was carried out in an AIM-V medium containing 3 micro-g/ml beta 2-microglobulin. These peptide-pulsed DCs were inactivated by X-ray irradiation (20 Gy), mixed in a 1:20 ratio with autologous CD8 positive T cells obtained by positive selection using the CD8 Positive Isolation Kit (Invitrogen) (1.5×10^4 DCs and 3×10^5 CD8 positive T cells), and cultured in a 48-well plate (Corning). Each well contained 0.5 ml of the 5% ABS/AIM-V medium, and IL-7 (R&D System) was added thereto (final concentration: 10 ng/ml). Two days after the start of the culture, IL-2 (Novartis) was added (final concentration: 20 IU/ml). On day 7 and day 14 of culture, the CD8 positive T cells were further stimulated with peptide-pulsed DCs. The DCs were prepared at the time of use by the same method as above. After day 21 (after three DC stimulations), IFN-gamma production against the peptide-pulsed C1R-A11 was confirmed using human interferon (IFN)-gamma enzyme-linked immunospot (ELISPOT) assay (Tanaka H et al., Br J Cancer 2001, 84(1): 94-9; Umano Y et al., Br J Cancer 2001, 84(8): 1052-7; Uchida N et al., Clin Cancer Res 2004, 10(24): 8577-86; Suda T et al., Cancer Sci 2006, 97(5): 411-9; Watanabe T et al., Cancer Sci 2005, 96(8): 498-506).
(§2) Peptide-pulsed C1R-A11 (1×10^4 cells/well) was prepared as the target cell. The IFN-gamma ELISPOT assay and IFN-gamma ELISA were performed according to the assay kit manufacturer's manual.

[2] = tested on: peptide-pulsed C1R-A33; test: In vitro CTL induction, IFN-gamma ELISPOT assay (HLA-A*33:03); type: cell-based, human; settings: CD8 positive T cells of HLA-A*33:03-positive donors after three stimulations with peptide-pulsed DCs, against peptide-pulsed C1R-A33
Method: as §1, with “(HLA-A*33:03-positive)” for “(HLA-A*11:01-positive)”, “there” for “thereto”, “C1R-A33” for “C1R-A11”, “1052-7:” for “1052-7;”
(§3) Peptide-pulsed C1R-A33 (1×10^4 cells/well) was prepared as the target cell. The IFN-gamma ELISPOT assay and IFN-gamma ELISA assay were performed according to the assay kit manufacturer's manual.

[3] = tested on: peptide-pulsed C1R-A11; test: IFN-gamma ELISA of CTL lines and CTL clones (HLA-A*11:01); type: cell-based, human; settings: for peptide-specific IFN-gamma production of CTL clone (ELISA): CTL clone by limiting dilution, against C1R-A11 pulsed with the peptide; for IFN-gamma production by CTL line (ELISA): CTL line against C1R-A11 pulsed with the peptide
Method: (§4) CTLs were propagated using methods similar to those reported by Riddell et al. (Walter E A et al., N Engl J Med 1995, 333(16): 1038-44; Riddell S R et al., Nat Med 1996, 2(2): 216-23). The CTLs were cultured in 25 ml 5% ABS/AIM-V medium together with two types of Mitomycin C-treated human B lymphoblastoid cell lines (5×10^6 cells/25 ml medium each) and an anti-CD3 antibody (final concentration: 40 ng/ml). On the day after beginning of the culturing, IL-2 (final concentration: 120 IU/ml) was added to the culture. On days 5, 8 and 11, the medium was changed to a 5% ABS/AIM-V medium containing IL-2 (final concentration: 30 IU/ml) (Tanaka H et al., Br J Cancer 2001, 84(1): 94-9; Umano Y et al., Br J Cancer 2001, 84(8): 1052-7; Uchida N et al., Clin Cancer Res 2004, 10(24): 8577-86; Suda T et al., Cancer Sci 2006, 97(5): 411-9; Watanabe T et al., Cancer Sci 2005, 96(8): 498-506).
(§5) After induction of CTLs in vitro, the CTLs were seeded onto 96 round-bottomed microtiter plates (Nalge Nunc International) at 1 cell/well or 10 cells/well. The CTLs were cultured with two types of Mitomycin C-treated human B lymphoblastoid cell lines (1×10^4 cells/well each) in a total of 150 micro-1/well 5% ABS/AIM-V medium with an anti-CD3 antibody (final concentration: 30 ng/ml) and IL-2 (final concentration: 125 IU/ml). Ten days later, 50 micro-15% ABS/AIM-V medium containing 500 IU/ml IL-2 was added to the culture. On day 14 or after.
as §2

[4] = tested on: COS7 cells expressing MPHOSPH1 and HLA-A*11:01; test: IFN-gamma production of CTL clone against target cells expressing MPHOSPH1 and HLA-A*11:01; type: cell-based, African green monkey
Method: as §2
A cDNA encoding the MPHOSPH1 or HLA-A*11:01 gene was amplified by PCR. The PCR-amplified product was each incorporated into an expression vector. Either or both of the MPHOSPH1 gene-expressing vector and the HLA-A*11:01 gene-expressing vector were introduced into COS7, which is a cell line negative for HLA, using Lipofectamine 2000 (Invitrogen) following the manufacturer's recommended protocol. On the day after gene introduction, COS7 cells were detached and harvested using versene (Invitrogen), and used as the target cell for confirmation of IFN-gamma production (5×10^4 cells/well).

[5] = tested on: peptide-pulsed C1R-A33; test: IFN-gamma ELISA of CTL lines and CTL clones (HLA-A*33:03); type: cell-based, human; settings: listed as MPHOSPH1-A33-10-57
Method: as §4
as §5, with “micro-l/well” for “micro-1/well”, “micro-l 5%” for “micro-15%”, “culture.” for “culture. On day 14 or after.”
as §3

Question: With “TSSLIINNK (a peptide derived from MPHOSPH1) [SEQ ID NO: 5]” as the sequence, how does the “peptide-specific IFN-gamma production (ELISPOT)” value ([1]; listed as MPHOSPH1-A11-9-762) read?
Answer: Its value is “Peptide-specific IFN-gamma production was observed”.

Question: How did the “peptide-specific IFN-gamma production (ELISPOT)” value ([1]; listed as MPHOSPH1-A11-10-1675) turn out when “SIIGVNLATK (a peptide derived from MPHOSPH1) [SEQ ID NO: 53]” was run?
Answer: Its value is “Peptide-specific IFN-gamma production was observed”.

Question: With “TINEFQNLK (a peptide derived from MPHOSPH1) [SEQ ID NO: 4]” as the sequence, how does the “peptide-specific IFN-gamma production (ELISPOT)” value ([1]; listed as MPHOSPH1-A11-9-739) read?
Answer: The value was “peptide-specific IFN-gamma production was not observed”.

Question: How did the “peptide-specific IFN-gamma production (ELISPOT)” value ([2]; listed as MPHOSPH1-A33-9-1474) turn out when “DLQKWREER (a peptide derived from MPHOSPH1) [SEQ ID NO: 119]” was run?
Answer: The value was “Peptide-specific IFN-gamma production was observed”.

Question: Which results are given for “SSARTQNLK (a peptide derived from MPHOSPH1) [SEQ ID NO: 12]”?
Answer: peptide-specific IFN-gamma production (ELISPOT) ([1]; listed as MPHOSPH1-A11-9-1227): Peptide-specific IFN-gamma production was observed; peptide-specific IFN-gamma production of CTL clone (ELISA) ([3]; listed as MPHOSPH1-A11-9-1227): showed a peptide-specific IFN-gamma production; IFN-gamma production by CTL line (ELISA) ([3]; listed as MPHOSPH1-A11-9-1227): CTL lines that produce IFN-gamma in a peptide-specific manner were established; also recorded: observed

Question: With “CILGRLSEK (a peptide derived from MPHOSPH1) [SEQ ID NO: 27]” as the sequence, how does the “peptide-specific IFN-gamma production (ELISPOT)” value ([1]; listed as MPHOSPH1-A11-9-96) read?
Answer: The value was “Peptide-specific IFN-gamma production was observed”.

Question: For “STSFEISRNK (a peptide derived from MPHOSPH1) [SEQ ID NO: 52]”, which “peptide-specific IFN-gamma production (ELISPOT)” value ([1]; listed as MPHOSPH1-A11-10-1546) is on record?
Answer: The value was “Peptide-specific IFN-gamma production was observed”.

Question: And the “IFN-gamma production of peptide-specific CTL clone” value ([4]; against COS7 cells expressing both MPHOSPH1 and HLA-A*11:01)?
Answer: Its value is “showed IFN-gamma production”.

Question: And the “IFN-gamma production of peptide-specific CTL clone” value ([4]; against negative control COS7 cells expressing either one of MPHOSPH1 and HLA-A*11:01, listed as MPHOSPH1-A11-10-1546)?
Answer: Its value is “a significant IFN-gamma production was not shown; also recorded: a significant IFN-gamma production was not observed”.

Question: What about the “peptide-specific IFN-gamma production of CTL clone (ELISA)” value ([3]; listed as MPHOSPH1-A11-10-1546) of the same sequence?
Answer: Its value is “showed a peptide-specific IFN-gamma production”.

Question: And the “IFN-gamma production by CTL line (ELISA)” value ([3]; listed as MPHOSPH1-A11-10-1546)?
Answer: The value was “CTL lines that produce IFN-gamma in a peptide-specific manner were established; also recorded: observed”.

Question: What does the source list for “DYLQVCLRIR (a peptide derived from MPHOSPH1) [SEQ ID NO: 170]”?
Answer: peptide-specific IFN-gamma production of CTL clone (ELISA) ([5]; CTL clone by limiting dilution, against C1R-A33 pulsed with the peptide): showed a peptide-specific IFN-gamma production; IFN-gamma production by CTL line (ELISA) ([5]; CTL line against C1R-A33 pulsed with the peptide): CTL lines that produce IFN-gamma in a peptide-specific manner were established; also recorded: observed; peptide-specific IFN-gamma production (ELISPOT) ([2]; listed as MPHOSPH1-A33-10-57): Peptide-specific IFN-gamma production was observed

Question: With “SSKKTYSLR (a peptide derived from MPHOSPH1) [SEQ ID NO: 48]” as the sequence, how does the “peptide-specific IFN-gamma production (ELISPOT)” value ([2]; listed as MPHOSPH1-A33-9-1663) read?
Answer: Its value is “peptide-specific IFN-gamma production was not observed”.
